The numbers were not newly measured in patent US9480645B2, “Omega-3 oil containing ophthalmic emulsions” (Abbott Medical Optics Inc., priority 2009, dated 2016), which cites them from elsewhere.

The conditions of the data set: generally as reported by the manufacturer of the commercial product.
Turning to Sorbitan monopalmitate, the HLB was 6.7.
Take Sorbitan monooleate: the HLB was 4.3.
In the case of Sorbitan monostearate, the HLB is 4.7.
